Assay results as given in US20260226068A1, “IMIDAZOTRIAZINE IL-17A MODULATORS AND USES THEREOF” (DICE ALPHA, INC., priority 2023, published 2026).

Tests used:
IL-17A/F = target: T1, IL-17A/F (Homo sapiens, UniProt Q16552+Q96PD4); experiment: IL-17A/F HEK-Blue cell assay (SEAP reporter); format: cell-based; details: HEK-Blue IL-17A reporter cells, IL17A/F 5 ng/mL, 20 hours, SEAP read at A630; read-out: HEK-Blue IL17AF (IC50 for IL-17A/F inhibition)
T1 construct: purchased R&D Systems
T1 sequence (Q16552 24-155): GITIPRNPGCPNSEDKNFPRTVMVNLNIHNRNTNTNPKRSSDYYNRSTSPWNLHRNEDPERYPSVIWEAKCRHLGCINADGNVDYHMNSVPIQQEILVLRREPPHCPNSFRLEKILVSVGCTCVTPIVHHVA
T1 sequence (Q96PD4 31-163): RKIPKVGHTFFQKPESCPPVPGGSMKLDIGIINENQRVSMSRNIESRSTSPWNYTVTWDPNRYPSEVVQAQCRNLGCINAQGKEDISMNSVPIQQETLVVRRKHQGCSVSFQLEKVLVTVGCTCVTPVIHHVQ

IL-17A/A = target: T2, IL-17A/A (Homo sapiens, UniProt Q16552); experiment: IL-17A/A HEK-Blue cell assay (SEAP reporter); format: cell-based; details: HEK-Blue IL-17A reporter cells, IL17A/A 5 ng/mL, 20 hours, SEAP read at A630; read-out: HEK-Blue IL17AA (IC50 for IL-17A/A inhibition)
T2 construct: purchased Genscript Z03228
T2 sequence (Q16552 24-155): T1 sequence (Q16552 24-155)

Work on `CCn1nccc1C(=O)N[C@H](c1cn2nc(C[C@H]3C[C@@H](C(F)(F)F)CNC3=O)c(C3COC4(C3)CN(C)C4)nc2n1)C1CCC(F)(F)CC1` (stereo partly drawn) [Compound 355, N-((1S)-(4,4-difluorocyclohexyl)(3-(2-methyl-5-oxa-2-azaspiro[3.4]octan-7-yl)-2-(((3R,5R)-2-oxo-5-(trifluoromethyl)piperidin-3-yl)methyl)imidazo[1,2-b][1,2,4]triazin-6-yl)methyl)-1-ethyl-1H-pyrazole-5-carboxamide] yielded an IC50 (IL-17A/F) of over 1000 nM and an IC50 (IL-17A/A) of 100 to 1000 nM.
For `CCn1nccc1C(=O)N[C@H](c1cn2nc(C[C@H]3C[C@@H](C(F)(F)F)CNC3=O)c(CN(C)C3CC3)nc2n1)C1CCC(F)(F)CC1` [Compound 356, N—((S)-(3-((cyclopropyl(methyl)amino)methyl)-2-(((3R,5R)-2-oxo-5-(trifluoromethyl)piperidin-3-yl)methyl)imidazo[1,2-b][1,2,4]triazin-6-yl)(4,4-difluorocyclohexyl)methyl)-1-ethyl-1H-pyrazole-5-carboxamide], the IC50 (IL-17A/F) was 100 to 1000 nM and the IC50 (IL-17A/A) was under 100 nM.
`CCn1nccc1C(=O)N[C@H](c1cn2nc(C[C@H]3C[C@@H](C(F)(F)F)CNC3=O)c(N3CCN(C)C4(CC4)C3)nc2n1)C1CCC(F)(F)CC1` [Compound 357, N—((S)-(4,4-difluorocyclohexyl)(3-(4-methyl-4,7-diazaspiro[2.5]octan-7-yl)-2-(((3R,5R)-2-oxo-5-(trifluoromethyl)piperidin-3-yl)methyl)imidazo[1,2-b][1,2,4]triazin-6-yl)methyl)-1-ethyl-1H-pyrazole-5-carboxamide] was tested, and the IC50 (IL-17A/F) was 100 to 1000 nM and the IC50 (IL-17A/A) was under 100 nM.
In the case of `CCn1nccc1C(=O)N[C@H](c1cn2nc(C[C@H]3C[C@@H](C(F)(F)F)CNC3=O)c(C3CCn4nccc4C3)nc2n1)C1CCC(F)(F)CC1` (stereo partly drawn) [Compound 358, N-((1S)-(4,4-difluorocyclohexyl)(2-(((3R,5R)-2-oxo-5-(trifluoromethyl)piperidin-3-yl)methyl)-3-(4,5,6,7-tetrahydropyrazolo[1,5-a]pyridin-5-yl)imidazo[1,2-b][1,2,4]triazin-6-yl)methyl)-1-ethyl-1H-pyrazole-5-carboxamide], the IC50 (IL-17A/F) is reported as 100 to 1000 nM and the IC50 (IL-17A/A) is reported as under 100 nM.
In the case of `CCn1nccc1C(=O)N[C@H](c1cn2nc(C[C@H]3C[C@@H](C(F)(F)F)CNC3=O)c(CCN3CCOCC3)nc2n1)C1CCC(F)(F)CC1` [Compound 359], the IC50 (IL-17A/F) is reported as 100 to 1000 nM and the IC50 (IL-17A/A) is reported as under 100 nM.
Work on `CCn1nccc1C(=O)N[C@H](c1cn2nc(C[C@H]3C[C@@H](C(F)(F)F)CNC3=O)c(N3CC4CC(C3)N4C)nc2n1)C1CCC(F)(F)CC1` [Compound 360, N-((1S)-(4,4-difluorocyclohexyl)(3-(6-methyl-3,6-diazabicyclo[3.1.1]heptan-3-yl)-2-(((3R,5R)-2-oxo-5-(trifluoromethyl)piperidin-3-yl)methyl)imidazo[1,2-b][1,2,4]triazin-6-yl)methyl)-1-ethyl-1H-pyrazole-5-carboxamide] yielded an IC50 (IL-17A/F) of 100 to 1000 nM and an IC50 (IL-17A/A) of 100 to 1000 nM.
`CCn1nccc1C(=O)N[C@H](c1cn2nc(C[C@H]3C[C@@H](C(F)(F)F)CNC3=O)c(N3CC4CCC(C3)N4C)nc2n1)C1CCC(F)(F)CC1` [Compound 361, N-((1S)-(4,4-difluorocyclohexyl)(3-(8-methyl-3,8-diazabicyclo[3.2.1]octan-3-yl)-2-(((3R,5R)-2-oxo-5-(trifluoromethyl)piperidin-3-yl)methyl)imidazo[1,2-b][1,2,4]triazin-6-yl)methyl)-1-ethyl-1H-pyrazole-5-carboxamide] was tested, and the IC50 (IL-17A/F) was 100 to 1000 nM and the IC50 (IL-17A/A) was under 100 nM.
With `CN(C)CCn1nccc1C(=O)N[C@H](c1cn2nc(C[C@H]3C[C@@H](C(F)(F)F)CNC3=O)c(C3CCOCC3)nc2n1)C1CCC(F)(F)CC1` [Compound 362, N—((S)-(4,4-difluorocyclohexyl)(2-(((3R,5R)-2-oxo-5-(trifluoromethyl)piperidin-3-yl)methyl)-3-(tetrahydro-2H-pyran-4-yl)imidazo[1,2-b][1,2,4]triazin-6-yl)methyl)-1-(2-(dimethylamino)ethyl)-1H-pyrazole-5-carboxamide] the IC50 (IL-17A/F) was over 1000 nM and the IC50 (IL-17A/A) was 100 to 1000 nM.
Work on `CCn1ncnc1C(=O)N[C@H](c1cn2nc(C[C@H]3C[C@@H](C(F)(F)F)CNC3=O)c(C3CCOCC3)nc2n1)C1CCC(F)(F)CC1` [Compound 363, N—((S)-(4,4-difluorocyclohexyl)(2-(((3R,5R)-2-oxo-5-(trifluoromethyl)piperidin-3-yl)methyl)-3-(tetrahydro-2H-pyran-4-yl)imidazo[1,2-b][1,2,4]triazin-6-yl)methyl)-1-ethyl-1H-1,2,4-triazole-5-carboxamide] yielded an IC50 (IL-17A/F) of over 1000 nM and an IC50 (IL-17A/A) of under 100 nM.
`CCn1nncc1C(=O)N[C@H](c1cn2nc(C[C@H]3C[C@@H](C(F)(F)F)CNC3=O)c(C3CCOCC3)nc2n1)C1CCC(F)(F)CC1` [Compound 364, N—((S)-(4,4-difluorocyclohexyl)(2-(((3R,5R)-2-oxo-5-(trifluoromethyl)piperidin-3-yl)methyl)-3-(tetrahydro-2H-pyran-4-yl)imidazo[1,2-b][1,2,4]triazin-6-yl)methyl)-1-ethyl-1H-1,2,3-triazole-5-carboxamide] was tested, and the IC50 (IL-17A/F) was over 1000 nM and the IC50 (IL-17A/A) was under 100 nM.
With `CCn1nccc1C(=O)N[C@H](c1cn2nc(C[C@H]3C[C@@H](C(F)(F)F)CNC3=O)c(N3CCOC(C)(C)C3)nc2n1)C1CCC(F)(F)CC1` [Compound 365, N—((S)-(4,4-difluorocyclohexyl)(3-(2,2-dimethylmorpholino)-2-(((3R,5R)-2-oxo-5-(trifluoromethyl)piperidin-3-yl)methyl)imidazo[1,2-b][1,2,4]triazin-6-yl)methyl)-1-ethyl-1H-pyrazole-5-carboxamide] the IC50 (IL-17A/F) was 100 to 1000 nM and the IC50 (IL-17A/A) was under 100 nM.
`CCn1nccc1C(=O)N[C@H](c1cn2nc(C[C@H]3C[C@@H](C(F)(F)F)CNC3=O)c(N3CCN4CCOC[C@@H]4C3)nc2n1)C1CCC(F)(F)CC1` [Compound 366, N—((S)-(4,4-difluorocyclohexyl)(3-((S)-hexahydropyrazino[2,1-c][1,4]oxazin-8(1H)-yl)-2-(((3R,5R)-2-oxo-5-(trifluoromethyl)piperidin-3-yl)methyl)imidazo[1,2-b][1,2,4]triazin-6-yl)methyl)-1-ethyl-1H-pyrazole-5-carboxamide] gave an IC50 (IL-17A/F) of under 100 nM and an IC50 (IL-17A/A) of under 100 nM.
`CCn1nccc1C(=O)N[C@H](c1cn2nc(C[C@H]3C[C@@H](C(F)(F)F)CNC3=O)c(N3CCN4CCCC[C@@H]4C3)nc2n1)C1CCC(F)(F)CC1` [Compound 367, N—((S)-(4,4-difluorocyclohexyl)(3-((R)-octahydro-2H-pyrido[1,2-a]pyrazin-2-yl)-2-(((3R,5R)-2-oxo-5-(trifluoromethyl)piperidin-3-yl)methyl)imidazo[1,2-b][1,2,4]triazin-6-yl)methyl)-1-ethyl-1H-pyrazole-5-carboxamide] showed an IC50 (IL-17A/F) of under 100 nM and an IC50 (IL-17A/A) of under 100 nM.
In the case of `CCn1nccc1C(=O)N[C@H](c1cn2nc(C[C@H]3C[C@@H](C(F)(F)F)CNC3=O)c(N3CCN4CCC[C@@H]4C3)nc2n1)C1CCC(F)(F)CC1` [Compound 368, N—((S)-(4,4-difluorocyclohexyl)(3-((R)-hexahydropyrrolo[1,2-a]pyrazin-2(1H)-yl)-2-(((3R,5R)-2-oxo-5-(trifluoromethyl)piperidin-3-yl)methyl)imidazo[1,2-b][1,2,4]triazin-6-yl)methyl)-1-ethyl-1H-pyrazole-5-carboxamide], the IC50 (IL-17A/F) is reported as 100 to 1000 nM and the IC50 (IL-17A/A) is reported as under 100 nM.
